Data as given in paper PMC7830771 (Molecular cancer therapeutics, 2017).

Legend:
[1] = target: ABCB1 (P-glycoprotein, MDR1) (Homo sapiens, UniProt P08183); assay: vanadate-sensitive ATPase assay, crude membranes of High Five cells; format: biochemical
[2] = target: T1, ABCC10 (MRP7) (Homo sapiens, UniProt Q5T3U5); assay: [3H]-paclitaxel efflux, HEK293/ABCC10 versus HEK293/pcDNA3.[…] cells; format: cell-based; settings: labelled compound; 0.1 μmol/L; 37°C
T1 sequence (Q5T3U5 1-1492): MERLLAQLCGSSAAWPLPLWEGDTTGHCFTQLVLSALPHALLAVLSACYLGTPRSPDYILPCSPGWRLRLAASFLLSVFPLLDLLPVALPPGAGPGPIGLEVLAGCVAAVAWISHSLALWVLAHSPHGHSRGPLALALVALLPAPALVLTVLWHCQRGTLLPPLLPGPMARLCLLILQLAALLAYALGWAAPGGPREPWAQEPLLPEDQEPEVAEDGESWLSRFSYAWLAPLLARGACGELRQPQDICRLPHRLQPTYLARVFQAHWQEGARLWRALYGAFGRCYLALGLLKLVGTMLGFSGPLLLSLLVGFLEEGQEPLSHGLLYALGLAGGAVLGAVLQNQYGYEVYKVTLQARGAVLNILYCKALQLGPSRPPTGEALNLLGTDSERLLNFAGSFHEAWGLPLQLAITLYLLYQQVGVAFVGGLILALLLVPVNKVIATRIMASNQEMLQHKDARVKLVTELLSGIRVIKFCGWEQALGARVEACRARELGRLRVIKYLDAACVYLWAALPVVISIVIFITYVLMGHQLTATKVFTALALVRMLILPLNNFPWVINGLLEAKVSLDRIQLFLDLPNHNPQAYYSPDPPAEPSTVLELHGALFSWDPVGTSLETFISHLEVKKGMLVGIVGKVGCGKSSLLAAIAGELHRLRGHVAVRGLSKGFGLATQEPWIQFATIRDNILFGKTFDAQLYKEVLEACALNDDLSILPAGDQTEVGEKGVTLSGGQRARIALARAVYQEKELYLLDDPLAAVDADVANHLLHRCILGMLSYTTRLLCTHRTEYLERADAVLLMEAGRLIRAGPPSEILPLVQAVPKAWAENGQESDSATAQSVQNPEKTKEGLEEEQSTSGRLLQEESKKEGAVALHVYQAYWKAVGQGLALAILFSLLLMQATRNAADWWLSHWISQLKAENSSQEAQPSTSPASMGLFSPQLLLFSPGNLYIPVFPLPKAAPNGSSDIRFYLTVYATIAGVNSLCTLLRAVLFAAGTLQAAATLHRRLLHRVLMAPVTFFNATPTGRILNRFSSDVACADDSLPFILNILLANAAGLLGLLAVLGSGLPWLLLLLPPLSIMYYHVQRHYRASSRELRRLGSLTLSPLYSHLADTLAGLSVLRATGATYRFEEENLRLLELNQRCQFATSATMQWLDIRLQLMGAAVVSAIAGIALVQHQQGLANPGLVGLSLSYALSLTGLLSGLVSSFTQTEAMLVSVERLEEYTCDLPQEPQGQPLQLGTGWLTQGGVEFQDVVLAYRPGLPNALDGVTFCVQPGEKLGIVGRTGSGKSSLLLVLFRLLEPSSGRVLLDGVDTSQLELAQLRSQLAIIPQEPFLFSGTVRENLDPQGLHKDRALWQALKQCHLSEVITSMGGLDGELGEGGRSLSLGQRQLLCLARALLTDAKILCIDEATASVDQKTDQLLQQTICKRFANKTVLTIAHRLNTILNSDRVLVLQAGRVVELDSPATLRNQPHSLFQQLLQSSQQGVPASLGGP

Chain of ABCB1 (P-glycoprotein, MDR1) (P08183 whole entry): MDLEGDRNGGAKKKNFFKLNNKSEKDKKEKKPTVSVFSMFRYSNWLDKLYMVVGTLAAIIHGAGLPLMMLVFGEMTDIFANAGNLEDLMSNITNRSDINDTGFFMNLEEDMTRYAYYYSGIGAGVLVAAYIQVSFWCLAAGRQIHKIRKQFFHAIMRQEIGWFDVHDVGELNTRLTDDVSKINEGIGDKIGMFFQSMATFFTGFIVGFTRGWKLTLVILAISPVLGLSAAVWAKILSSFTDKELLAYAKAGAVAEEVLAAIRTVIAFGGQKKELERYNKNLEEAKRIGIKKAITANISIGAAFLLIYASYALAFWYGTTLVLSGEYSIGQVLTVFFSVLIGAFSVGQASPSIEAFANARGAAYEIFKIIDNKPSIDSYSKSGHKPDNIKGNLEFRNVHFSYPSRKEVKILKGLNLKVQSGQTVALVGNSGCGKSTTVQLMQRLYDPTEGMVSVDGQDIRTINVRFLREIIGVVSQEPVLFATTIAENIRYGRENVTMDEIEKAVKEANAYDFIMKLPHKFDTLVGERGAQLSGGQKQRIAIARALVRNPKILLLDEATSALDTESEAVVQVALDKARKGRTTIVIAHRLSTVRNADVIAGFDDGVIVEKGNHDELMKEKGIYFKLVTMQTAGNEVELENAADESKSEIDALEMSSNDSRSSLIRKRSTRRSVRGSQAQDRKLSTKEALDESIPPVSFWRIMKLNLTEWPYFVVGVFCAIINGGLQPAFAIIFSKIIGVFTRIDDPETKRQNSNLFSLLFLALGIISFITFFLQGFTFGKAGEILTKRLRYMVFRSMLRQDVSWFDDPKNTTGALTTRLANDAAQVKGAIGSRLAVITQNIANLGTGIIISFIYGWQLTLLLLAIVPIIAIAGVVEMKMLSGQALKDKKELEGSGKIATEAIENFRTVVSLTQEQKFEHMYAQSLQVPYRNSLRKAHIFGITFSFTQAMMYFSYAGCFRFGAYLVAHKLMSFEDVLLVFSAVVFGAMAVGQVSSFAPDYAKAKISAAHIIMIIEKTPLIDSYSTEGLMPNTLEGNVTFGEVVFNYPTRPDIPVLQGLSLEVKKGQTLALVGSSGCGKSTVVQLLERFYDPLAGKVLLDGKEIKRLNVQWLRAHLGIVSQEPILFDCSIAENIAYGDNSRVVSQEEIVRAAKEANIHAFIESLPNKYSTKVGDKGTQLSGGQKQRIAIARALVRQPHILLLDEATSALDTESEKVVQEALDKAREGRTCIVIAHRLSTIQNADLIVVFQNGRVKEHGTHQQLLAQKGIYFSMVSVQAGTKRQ

| SMILES | EC50 [1] | [3H]-paclitaxel efflux, HEK293/ABCC10 versus HEK293/pcDNA3.1 cells [2] |
| --- | --- | --- |
| C=CC(=O)N1CCC[C@@H](n2nc(-c3ccc(Oc4ccccc4)cc3)c3c(N)ncnc32)C1 [ibrutinib] | 641 nM | – |
| CC(=O)O[C@H]1C(=O)[C@@]2(C)[C@H]([C@H](OC(=O)c3ccccc3)[C@]3(O)C[C@H](OC(=O)[C@H](O)[C@@H](NC(=O)c4ccccc4)c4ccccc4)C(C)=C1C3(C)C)[C@]1(OC(C)=O)CO[C@@H]1C[C@@H]2O [paclitaxel] | – | KB-C2 and HEK293/ABCC10 cells efflux more [^3H]-paclitaxel out of the cells |
